Experimental data published in publication PMC8766756, “Insights on Cancer Cell Inhibition, Subcellular Activities, and Kinase Profile of Phenylacetamides Pending 1H-Imidazol-5-One Variants” (Frontiers in Pharmacology, 2022).
Several values for one entry are separate records, joined by “and”; a condition that tells them apart may be missing. Equal entries are not always repeated.

Tests used:
FLT3 (P36888) = biological target: T1, FLT3 (P36888) (Homo sapiens, UniProt P36888); assay: PamChip tyrosine kinase microarray; format: biochemical; conditions: 0.1 µM, HL60 lysate
T1 construct: purchased PamGene (PamChip PTK array, Upstream Kinase Analysis)
T1 sequence (P36888 27-993): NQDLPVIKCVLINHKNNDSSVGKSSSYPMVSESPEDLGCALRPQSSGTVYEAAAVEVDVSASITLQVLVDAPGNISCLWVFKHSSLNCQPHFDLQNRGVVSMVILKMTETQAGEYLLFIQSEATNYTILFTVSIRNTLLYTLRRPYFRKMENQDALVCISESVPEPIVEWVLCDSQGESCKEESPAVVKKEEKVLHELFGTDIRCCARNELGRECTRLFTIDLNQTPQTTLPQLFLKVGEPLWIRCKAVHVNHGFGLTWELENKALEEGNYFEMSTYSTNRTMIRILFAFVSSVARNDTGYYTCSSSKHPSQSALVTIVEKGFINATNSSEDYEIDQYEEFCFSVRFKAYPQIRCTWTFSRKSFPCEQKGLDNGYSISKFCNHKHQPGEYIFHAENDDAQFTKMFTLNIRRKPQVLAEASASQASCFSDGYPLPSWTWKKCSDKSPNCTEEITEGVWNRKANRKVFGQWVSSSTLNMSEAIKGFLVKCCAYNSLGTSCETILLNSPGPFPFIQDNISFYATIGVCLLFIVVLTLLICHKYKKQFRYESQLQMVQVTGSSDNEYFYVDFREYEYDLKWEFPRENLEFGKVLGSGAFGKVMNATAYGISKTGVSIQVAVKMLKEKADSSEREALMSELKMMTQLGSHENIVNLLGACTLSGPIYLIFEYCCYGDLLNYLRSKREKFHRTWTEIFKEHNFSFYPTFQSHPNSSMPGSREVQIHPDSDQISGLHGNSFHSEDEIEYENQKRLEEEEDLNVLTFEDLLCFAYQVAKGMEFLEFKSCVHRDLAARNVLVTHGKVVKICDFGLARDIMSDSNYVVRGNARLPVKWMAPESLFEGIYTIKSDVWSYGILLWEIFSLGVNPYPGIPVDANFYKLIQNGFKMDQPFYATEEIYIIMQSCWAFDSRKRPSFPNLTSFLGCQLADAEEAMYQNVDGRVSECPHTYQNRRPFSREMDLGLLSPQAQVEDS
Summary of the method: (§1)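 HL60 (AML) cell lysate was spiked with compound at 0.001, 0.01, 0.1, 1, 10 and 50 µM, or 2% v/v DMSO as control, then profiled in technical replicates on a tyrosine kinase peptide array of 196 phosphosites. Kinase activity was inferred from peptide-set changes using an upstream kinase tool.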

Ret (P07949) = biological target: T2, Ret (P07949) (Homo sapiens, UniProt P07949); assay: PamChip tyrosine kinase microarray; format: biochemical; conditions: 0.1 µM, HL60 lysate
T2 construct: purchased PamGene (PamChip PTK array, Upstream Kinase Analysis)
T2 sequence (P07949 29-1114): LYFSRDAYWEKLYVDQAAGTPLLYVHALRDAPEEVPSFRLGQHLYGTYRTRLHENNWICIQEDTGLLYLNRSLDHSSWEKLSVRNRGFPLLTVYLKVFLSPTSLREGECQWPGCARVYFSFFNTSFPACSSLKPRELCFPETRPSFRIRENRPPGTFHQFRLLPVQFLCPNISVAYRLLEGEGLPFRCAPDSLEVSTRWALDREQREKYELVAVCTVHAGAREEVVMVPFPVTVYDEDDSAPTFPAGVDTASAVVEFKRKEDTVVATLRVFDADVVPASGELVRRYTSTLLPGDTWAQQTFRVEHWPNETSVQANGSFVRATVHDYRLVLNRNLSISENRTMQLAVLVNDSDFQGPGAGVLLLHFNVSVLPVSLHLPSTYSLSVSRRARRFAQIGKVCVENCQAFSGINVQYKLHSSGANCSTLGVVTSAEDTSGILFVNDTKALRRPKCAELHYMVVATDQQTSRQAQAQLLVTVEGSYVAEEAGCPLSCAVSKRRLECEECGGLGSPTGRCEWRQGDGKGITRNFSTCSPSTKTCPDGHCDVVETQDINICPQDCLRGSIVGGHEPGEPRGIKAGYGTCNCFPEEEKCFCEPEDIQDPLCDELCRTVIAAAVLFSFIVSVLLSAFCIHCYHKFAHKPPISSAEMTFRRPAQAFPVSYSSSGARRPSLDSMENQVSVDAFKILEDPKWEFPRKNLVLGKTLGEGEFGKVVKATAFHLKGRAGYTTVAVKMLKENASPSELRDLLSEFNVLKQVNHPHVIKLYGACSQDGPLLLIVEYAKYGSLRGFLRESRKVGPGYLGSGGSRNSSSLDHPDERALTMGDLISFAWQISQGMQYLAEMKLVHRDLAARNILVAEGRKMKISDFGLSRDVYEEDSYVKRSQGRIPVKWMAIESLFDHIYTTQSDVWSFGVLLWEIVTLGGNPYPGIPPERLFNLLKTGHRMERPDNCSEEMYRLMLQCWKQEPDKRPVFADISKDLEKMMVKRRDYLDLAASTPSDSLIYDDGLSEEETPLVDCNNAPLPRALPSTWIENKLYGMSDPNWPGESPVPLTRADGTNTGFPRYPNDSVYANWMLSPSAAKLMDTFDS
Summary of the method: as §1

COc1ccc(/C=C2\N=C(C)N(c3ccc(CC(=O)NCc4ccccc4)cc3)C2=O)cc1 [Compound 4c, (Z)-N-Benzyl-2-(4-(4-(4-methoxybenzylidene)-2-methyl-5-oxo-4,5-dihydro-1H-imidazol-1-yl)phenyl)acetamide]
Mean Significance Score (FLT3 (P36888)): 2.042 | Mean Specificity Score (FLT3 (P36888)): 1.043 | Mean Final score (Kinase score) (FLT3 (P36888); listed as KIM-161): 3.19 and 3.193 | Mean Significance Score (Ret (P07949)): 2.048 | Mean Specificity Score (Ret (P07949)): 1.108 | Mean Final score (Kinase score) (Ret (P07949); listed as KIM-161): 3.14 and 3.143
